From US4504492A, “Pharmaceutical amides, and preparation, formulations and use thereof” (Burroughs Wellcome Co., priority 1981, dated 1985)
Where two headings read alike, the source gives them in different places.

Tests used:
[1] = molecular target: T1, `Enkephalinase` (Mus musculus, UniProt Q61391); assay: Activity ex vivo: `enkephalinase` activity in lung and brain homogenates of mice dosed i.p. with test compound; conditions: for ED50: mouse, ip, 0.25 h; for Lung/Brain (ED50 ratio): ratio of apparent ED50 values for lung and brain, 15 min
T1 construct: The lung and brain (less cerebellum) were rapidly dissected, weighed and homogenised; from tissue; host or cells: mouse lung and brain (less cerebellum) homogenate
T1 sequence (Q61391 1-750): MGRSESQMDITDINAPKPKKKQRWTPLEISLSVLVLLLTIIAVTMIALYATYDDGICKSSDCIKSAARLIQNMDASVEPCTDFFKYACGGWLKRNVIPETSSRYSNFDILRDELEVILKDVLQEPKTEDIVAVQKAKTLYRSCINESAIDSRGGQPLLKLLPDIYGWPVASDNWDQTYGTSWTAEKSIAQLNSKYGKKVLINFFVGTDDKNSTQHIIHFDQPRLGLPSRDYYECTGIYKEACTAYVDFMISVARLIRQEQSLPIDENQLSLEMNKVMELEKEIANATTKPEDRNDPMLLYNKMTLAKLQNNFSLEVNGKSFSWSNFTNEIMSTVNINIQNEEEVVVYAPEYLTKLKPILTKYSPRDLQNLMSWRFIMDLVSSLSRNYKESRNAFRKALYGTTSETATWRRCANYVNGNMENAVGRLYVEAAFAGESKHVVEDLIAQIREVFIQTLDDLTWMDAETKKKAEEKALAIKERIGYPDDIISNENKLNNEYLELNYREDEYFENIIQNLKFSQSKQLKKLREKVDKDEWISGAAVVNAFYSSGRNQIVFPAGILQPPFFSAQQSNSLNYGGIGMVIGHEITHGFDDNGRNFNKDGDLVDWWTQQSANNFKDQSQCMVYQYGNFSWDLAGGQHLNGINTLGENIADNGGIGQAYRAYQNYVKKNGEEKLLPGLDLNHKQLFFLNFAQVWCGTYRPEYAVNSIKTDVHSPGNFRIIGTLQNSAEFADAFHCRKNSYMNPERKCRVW
Description: Mice were dosed i.p. with 0-30 mg/Kg of test compound suspended in 0.25% w/v celacol/0.85% w/v saline. The mice were killed 15 minutes after administration of the doses. The lung and brain (less cerebellum) were rapidly dissected, weighed and homogenised in 100 mM tris-HCl pH 7.4 buffer containing 1 uM Captopril to give a 9.1% W/V homogenate. `Enkephalinase` activity in the homogenate was measured by incubation at 37° C. with 100 μM [^3 H]-D-Tyr-D-Ala-L-Gly-L-Gly-L-Phe-L-leu for 10 minutes (lung) or 30 minutes (brain).

[2] = test system: ACE and enkephalinase; conditions: specificity for ACE over enkephalinase; Swerts et al; cited from earlier work
[3] = molecular target: T2, enkephalinase Al (Rattus norvegicus, UniProt P07861); assay: Enkephalinase-inhibiting activity in vitro (3H-TGG generation from 3H-leucine enkephalin by purified enkephalinase Al); assay type: biochemical; conditions: approximate, determined graphically; leucine enkephalin 5×10^-5 M, 30° C., 30 mins with enzyme; read-out: IC50 (concentration of test compound required for 50% inhibition of 3H-TGG generation)
T2 construct: from tissue; host or cells: rat striatum (membrane pellet, Triton X-100 solubilised, DEAE-cellulose and Sephacryl S-300)
T2 sequence (P07861 1-750): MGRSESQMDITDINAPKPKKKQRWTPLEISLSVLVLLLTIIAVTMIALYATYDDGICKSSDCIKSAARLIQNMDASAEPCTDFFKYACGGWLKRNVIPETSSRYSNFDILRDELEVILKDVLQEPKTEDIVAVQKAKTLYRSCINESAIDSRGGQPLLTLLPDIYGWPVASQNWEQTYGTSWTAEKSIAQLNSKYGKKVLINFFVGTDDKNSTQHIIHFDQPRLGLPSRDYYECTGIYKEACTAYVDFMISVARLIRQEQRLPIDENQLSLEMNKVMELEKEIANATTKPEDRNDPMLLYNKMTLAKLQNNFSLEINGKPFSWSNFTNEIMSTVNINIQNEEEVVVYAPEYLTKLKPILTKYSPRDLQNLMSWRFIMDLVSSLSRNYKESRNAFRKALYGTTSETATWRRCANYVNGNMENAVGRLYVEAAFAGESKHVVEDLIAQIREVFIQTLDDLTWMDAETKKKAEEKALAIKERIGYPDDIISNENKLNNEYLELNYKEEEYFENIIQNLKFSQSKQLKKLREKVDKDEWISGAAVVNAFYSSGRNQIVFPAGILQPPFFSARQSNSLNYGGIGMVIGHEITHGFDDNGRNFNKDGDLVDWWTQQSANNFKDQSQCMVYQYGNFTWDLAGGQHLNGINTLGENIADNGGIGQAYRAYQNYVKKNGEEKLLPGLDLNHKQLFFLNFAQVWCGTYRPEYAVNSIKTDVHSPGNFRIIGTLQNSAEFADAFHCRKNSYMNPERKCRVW
Description: The compounds were investigated for enkephalinase inhibiting activity using the following method.
Rats were killed by decapitation and the striata dissected out on ice. The pooled tissues were homogenised on ice-cold Tris/hydrochloric acid buffer (50 mM, pH 7.70, 30 ml per gram of tissue) and centrifuged (50,000 g, 15 mins). The resulting supernatent was discarded and the remaining pellet washed three times. The washed pellet was solubilised by resuspension in half the volume of buffer as before containing 1.0% (v/v) Triton X-100 and incubated at 37° C. for 45 mins. The suspension was then centrifuged at 100,000 g for 60 mins and the solubilised enzymes contained in the supernatant separated by DEAE-cellulose column chromatography. Enkephalinase Al was further purified by Sephacryl S.300 chromatograph.
Enkephalinase-inhibiting activity was estimated by the following procedure.
Separation of (a) unchanged ^3 H-leucine enkephalin and (b) ^3 H-Tyr-Gly-OH(^3 H-TGG), generated from (a) by enkephalinase Al in the incubation mixture was effected by thin layer chromatography (plastic silica gel plates of 0.1 mm layer thickness, solvent system ethyl acetate:propan-2-ol:5% (v/v) acetic acid, 2:2:1) using solutions of the cold compounds as carriers. After drying the materials were visualized with ninhydrin and appropriate areas of the plates cut out and placed in scintillation vials containing 50% methanol/0.1M hydrochloric acid to elute the ^3 H label. Bioflor reagent (10 ml) was then added and the radioactivity determined by liquid scintillation counting.

[4] = brain (less cerebellum) homogenate, 15 minutes after administration, read-out: Apparent ED50 Brain
[5] = lung homogenate, 15 minutes after administration, read-out: Apparent ED50 Lung

SMILES	ED50 [1, 4] [µmol/kg]	ED50 [1, 5] [µmol/kg]	IC50 [3] [nM]	also measured
O=C(O)CNC(=O)C(CS)Cc1ccccc1 (racemic) [Thiorphan, (DL-3-mercapto-2-benzylpropanoyl)-glycine, reference compound]	3.92	0.69		
C[C@H](CS)C(=O)N1CCC[C@H]1C(=O)O [Captopril, 1-(D-3-mercapto-2-methylpropanoyl)-L-proline (S,S)]				concentration required to inhibit ACE by 50% lower than that required for the same inhibition of enkephalinase [2]: approximately 1000 fold
CC(C)C[C@H](NC(=O)C(Cc1ccccc1)C(=O)NO)C(=O)O (stereo partly drawn) [Compound 1, N-[2-(N-Hydroxycarbamoyl)-3-phenylpropanoyl]-L-leucine]	14.6	6.1	19	Lung/Brain (ED50 ratio) [1]: 2.4
CC(C)C[C@H](NC(=O)C(Cc1ccc(C(C)C)cc1)C(=O)NO)C(=O)O (stereo partly drawn) [Compound 2, N-[2-(N-Hydroxycarbamoyl)-3-(4-isopropylphenyl)propanoyl]-L-leucine]			120	
COc1ccc(CC(C(=O)NO)C(=O)N[C@@H](CC(C)C)C(=O)O)cc1 (stereo partly drawn) [Compound 3, N-[2-(N-Hydroxycarbamoyl)-3-(4-methoxyphenyl)-propanoyl]-L-leucine]			750	
CCOC(=O)[C@H](CC(C)C)NC(=O)C(Cc1ccccc1)C(=O)NO (stereo partly drawn) [Compound 4, Ethyl N-[(DL)-2-hydroxycarbamoyl)-3-phenylpropanoyl]-L-leucinate]	> 85.7	8.6		Lung/Brain (ED50 ratio) [1]: > 10
CC(C)C[C@H](NC(=O)C(Cc1ccccc1)C(=O)NO)C(=O)OC(C)(C)C (stereo partly drawn) [Compound 6, Tert-butyl N-[(DL)-2-hydroxycarbamoyl)-3-phenylpropanoyl]-L-leucinate]		> 26.5		Apparent ED50 Brain ([1]; brain (less cerebellum) homogenate, 15 minutes after administration): No inhibn. at 26.5
CC(C)C[C@H](NC(=O)C(Cc1ccc([N+](=O)[O-])cc1)C(=O)NO)C(=O)O (stereo partly shown) [Compound 9]			520	
CC(C)C[C@H](NC(=O)C(Cc1ccc(Br)cc1)C(=O)NO)C(=O)O (stereo partly shown) [Compound 10]			60	
